{
  "source": "ChEMBL document CHEMBL2034916",
  "about": "“Thiourea compound AW00178 sensitizes human H1299 lung carcinoma cells to TRAIL-mediated apoptosis” (2012)",
  "key": {"H1299 [1]": {"test_system": "H1299", "assay": "Inhibition of Akt in human H1299 cells assessed as decrease in survivin expression after 24 hrs by Western blot analysis", "assay_type": "cell-based"}, "NCI-H1299 [2]": {"test_system": "NCI-H1299", "assay": "Induction of DR5 expression in human H1299 cells at 0.1 to 30 uM after 24 hrs by Western blot analysis", "assay_type": "functional, cell-based"}, "[3]": {"target": "T1, c-Jun N-terminal kinase, JNK (Homo sapiens) (UniProt P45983+P53779+P45984)", "assay": "Induction of JNK-mediated CHOP expression in human H1299 cells at 0.1 to 30 uM after 24 hrs by Western blot analysis", "assay_type": "cell-based"}, "[4]": {"assay": "Down regulation of cIAP2 expression in human H1299 cells at 0.1 to 30 uM after 24 hrs by Western blot analysis in presence of 100 ug/ml TRAIL and PI3K inhibitor LY294002", "assay_type": "functional, cell-based", "conditions": "NCI-H1299"}, "H1299 [5]": {"test_system": "H1299", "assay": "Inhibition of Akt phosphorylation on human H1299 cells after 24 hrs by Western blot analysis", "assay_type": "cell-based"}, "[6]": {"assay": "Down regulation of cIAP2 expression in human H1299 cells at 0.1 to 30 uM after 24 hrs by Western blot analysis", "assay_type": "functional, cell-based", "conditions": "NCI-H1299"}, "[7]": {"assay": "Upregulation of CHOP in human H1299 cells at 10 uM after 24 hrs by Western blot analysis in presence of 100 ug/ml TRAIL and pretreated with 10 uM JNK inhibition SP600125", "assay_type": "functional, cell-based", "conditions": "NCI-H1299"}, "[8]": {"assay": "Down regulation of XIAP expression in human H1299 cells at 0.1 to 30 uM after 24 hrs by Western blot analysis", "assay_type": "functional, cell-based", "conditions": "NCI-H1299"}, "NCI-H1299 [9]": {"test_system": "NCI-H1299", "assay": "Induction of apoptosis in human H1299 cells assessed as apoptotic cells at 5 uM after 48 hrs by annexinV/propidium iodide staining-based flow cytometric analysis (reference value: 1.35%)", "assay_type": "functional"}, "NCI-H1299 [10]": {"test_system": "NCI-H1299", "assay": "Induction of DR5 protein expression in human H1299 cells after 24 hrs by Western blot analysis", "assay_type": "functional, cell-based"}, "[11]": {"assay": "Down regulation of Bcl-Xl expression in human H1299 cells at 10 uM after 24 hrs by Western blot analysis in presence of 100 ug/ml TRAIL", "assay_type": "functional, cell-based", "conditions": "NCI-H1299"}, "[12]": {"target": "T1, c-Jun N-terminal kinase, JNK (Homo sapiens)", "assay": "Induction of JNK-mediated CHOP protein expression in human H1299 cells after 24 hrs by Western blot analysis", "assay_type": "cell-based"}, "[13]": {"assay": "Down regulation of XIAP expression in human H1299 cells at 0.1 to 30 uM after 24 hrs by Western blot analysis in presence of 100 ug/ml TRAIL and PI3K inhibitor LY294002", "assay_type": "functional, cell-based", "conditions": "NCI-H1299"}, "[14]": {"assay": "Down regulation of AKT-mediated survivin expression in human H1299 cells at 5 to 10 uM after 24 hrs by Western blot analysis", "assay_type": "cell-based"}, "[15]": {"assay": "Down regulation of XIAP expression in human H1299 cells at 5 to 10 uM after 24 hrs by Western blot analysis", "assay_type": "functional, cell-based", "conditions": "NCI-H1299"}, "NCI-H1299 [16]": {"test_system": "NCI-H1299", "assay": "Induction of TRAIL-mediated apoptosis in human H1299 cells assessed as caspase 8 activation at 5 to 10 uM after 24 hrs by fluorometric assay", "assay_type": "functional, cell-based"}, "[17]": {"target": "T1, c-Jun N-terminal kinase, JNK (Homo sapiens)", "assay": "Induction of JNK-mediated c-Jun phosphorylation in human H1299 cells at 5 to 10 uM after 24 hrs by Western blot analysis", "assay_type": "cell-based"}, "[18]": {"assay": "Down regulation of cIAP1 expression in human H1299 cells at 10 uM after 24 hrs by Western blot analysis in presence of 100 ug/ml TRAIL", "assay_type": "functional, cell-based", "conditions": "NCI-H1299"}, "NCI-H1299 [19]": {"test_system": "NCI-H1299", "assay": "Induction of apoptosis in human H1299 cells assessed as apoptotic cells at 5 uM after 48 hrs by annexinV/propidium iodide staining-based flow cytometric analysis in presence of 100 ug/ml TRAIL (reference value: 1.35%)", "assay_type": "functional"}, "[20]": {"target": "T1, c-Jun N-terminal kinase, JNK (Homo sapiens)", "assay": "Induction of JNK-mediated c-Jun phosphorylation in human H1299 cells at 10 uM for 30 mins cotreated with TRAIL by Western blot analysis pretreated with 10 uM JNK inhibitor SP600125 for 1 hr", "assay_type": "cell-based"}, "[21]": {"target": "T1, c-Jun N-terminal kinase, JNK (Homo sapiens)", "assay": "Induction of JNK-mediated c-Jun phosphorylation in human H1299 cells at 5 to 10 uM after 24 hrs by Western blot analysis in presence of 100 ug/ml TRAIL", "assay_type": "cell-based"}, "NCI-H1299 [22]": {"test_system": "NCI-H1299", "assay": "Induction of TRAIL-mediated apoptosis in human H1299 cells assessed as caspase 8 activation at 5 to 10 uM after 24 hrs by fluorometric assay in presence of pan-caspase inhibitor Z-VAD-FMK", "assay_type": "functional, cell-based"}, "[23]": {"assay": "Down regulation of AKT-mediated survivin expression in human H1299 cells at 5 to 10 uM after 24 hrs by Western blot analysis in presence of 100 ug/ml TRAIL", "assay_type": "cell-based"}, "H1299 [24]": {"test_system": "H1299", "assay": "Inhibition of Akt phosphorylation in human H1299 cells at 5 to 10 uM after 24 hrs by Western blot analysis in presence of 100 ug/ml TRAIL", "assay_type": "cell-based"}, "[25]": {"assay": "Down regulation of cIAP2 expression in human H1299 cells at 10 uM after 24 hrs by Western blot analysis in presence of 100 ug/ml TRAIL", "assay_type": "functional, cell-based", "conditions": "NCI-H1299"}, "[26]": {"assay": "Down regulation of XIAP expression in human H1299 cells at 5 to 10 uM after 24 hrs by Western blot analysis in presence of 100 ug/ml TRAIL", "assay_type": "functional, cell-based", "conditions": "NCI-H1299"}, "H1299 [27]": {"test_system": "H1299", "assay": "Inhibition of Akt phosphorylation in human H1299 cells at 5 to 10 uM after 24 hrs by Western blot analysis", "assay_type": "cell-based"}, "NCI-H1299 [28]": {"test_system": "NCI-H1299", "assay": "Induction of apoptosis in human H1299 cells assessed as apoptotic cells at 10 uM after 48 hrs by annexinV/propidium iodide staining-based flow cytometric analysis in presence of 100 ug/ml TRAIL (reference value: 1.35%)", "assay_type": "functional"}, "NCI-H1299 [29]": {"test_system": "NCI-H1299", "assay": "Induction of apoptosis in human H1299 cells assessed as apoptotic cells at 10 uM after 48 hrs by annexinV/propidium iodide staining-based flow cytometric analysis (reference value: 1.35%)", "assay_type": "functional"}},
  "note": "Calls of active or inactive are those of the source. The rule behind the calls is not given here.",
  "data": [
    {"molecule": "O=c1cc(N2CCOCC2)oc2c(-c3ccccc3)cccc12", "values": [
      {"measurement": "inhibition", "setting": "H1299 [1]", "result": "Dose-dependent effect"},
      {"measurement": "Activity", "setting": "NCI-H1299 [2]", "result": "inactive"},
      {"measurement": "Activity", "setting": "[3]", "result": "inactive"},
      {"measurement": "Activity", "setting": "[4]", "result": "Active"},
      {"measurement": "inhibition", "setting": "H1299 [5]", "result": "Dose-dependent effect"},
      {"measurement": "Activity", "setting": "[6]", "result": "Active"}
    ]},
    {"molecule": "Cc1ccc(Cl)cc1NC(=S)Nc1ccc(-n2nccc2C(F)(F)F)cc1", "values": [
      {"measurement": "Activity", "setting": "[7]", "result": "inactive"},
      {"measurement": "Activity", "setting": "[8]", "result": "Active"},
      {"measurement": "Activity", "setting": "NCI-H1299 [9]", "result": 1.52, "unit": "%"},
      {"measurement": "Activity", "setting": "NCI-H1299 [10]", "result": "Active"},
      {"measurement": "Activity", "setting": "[11]", "result": "Active"},
      {"measurement": "Activity", "setting": "[12]", "result": "Active"},
      {"measurement": "Activity", "setting": "[13]", "result": "Active"},
      {"measurement": "Activity", "setting": "[14]", "result": "Active"},
      {"measurement": "Activity", "setting": "[15]", "result": "Active"},
      {"measurement": "Activity", "setting": "NCI-H1299 [16]", "result": "Active"},
      {"measurement": "Activity", "setting": "[17]", "result": "Active"},
      {"measurement": "Activity", "setting": "[18]", "result": "Active"},
      {"measurement": "Activity", "setting": "NCI-H1299 [19]", "result": 6.59, "unit": "%"},
      {"measurement": "Activity", "setting": "[20]", "result": "Active"},
      {"measurement": "Activity", "setting": "[21]", "result": "Active"},
      {"measurement": "Activity", "setting": "NCI-H1299 [22]", "result": "inactive"},
      {"measurement": "Activity", "setting": "[23]", "result": "Active"},
      {"measurement": "inhibition", "setting": "H1299 [24]", "result": "Active"},
      {"measurement": "Activity", "setting": "[25]", "result": "Active"},
      {"measurement": "Activity", "setting": "[26]", "result": "Active"},
      {"measurement": "inhibition", "setting": "H1299 [27]", "result": "Active"},
      {"measurement": "Activity", "setting": "NCI-H1299 [28]", "result": 39.4, "unit": "%"},
      {"measurement": "Activity", "setting": "NCI-H1299 [29]", "result": 3.25, "unit": "%"}
    ]}
  ]
}
